# In patent US9981983B2, “Thienopyranones as kinase inhibitors” (SignalRx Pharmaceuticals, Inc., priority 2008, dated 2018):
# Legend:
# Type in all cases: cell-based
# H1299 (Lung) = test: Cell proliferation MTS assay, H1299; details: Homo sapiens, NCI-H1299, 72 hours
# Protocol: (§1) All cell lines were obtained from ATCC and cultured and plated according to ATCC recommendations. Cells were cultured in complete culture media containing 10% heat-inactivated fetal bovine serum (FBS, Mediatech, Inc.). For adherent cell lines, once cells reached 70% confluency, they were trypsinized and resuspended in phenol red free RPMI media (Mediatech, Inc.) plus 10% heat-inactivated FBS (assay buffer) and 100 μL aliquots were plated into each well of 96-well microtiter plates at a final density of 1,000-2,000 cells/well. Cells were incubated overnight at 37° C. in 5% CO2, and treated with test compounds on the next day. For suspension cell lines, cells were resuspended in assay buffer, plated into 96-well microtiter plates at a density of 10^4-10^5 cells/well/100 μL, and treatment was started on the same day. Cells were treated with vehicle (DMSO) and test compounds for 72 hours at concentration of 100, 70, 40, 20, 10, 5, 2.5, 1.25, 0.5 and 0.2 μM in four replicates at 37° C. in 5% CO2.
# HCT116 (Colon) = test: Cell proliferation MTS assay, HCT116; details: Homo sapiens, HCT-116, 72 hours
# Protocol: as §1
# MCF7 (Breast) = test: Cell proliferation MTS assay, MCF7; details: Homo sapiens, 72 hours
# Protocol: as §1
# U87MG (Brain) = test: Cell proliferation MTS assay, U87MG; details: Homo sapiens, U-87 MG, 72 hours
# Protocol: as §1
# RPM18226 (Myeloma) = test: Cell proliferation MTS assay, RPM18226; details: 72 hours
# Protocol: as §1
# pAKT in H1299 cells = test: pAKT status DM50, H1299; details: Homo sapiens, NCI-H1299; H1299, non-small cell lung cancer
# Protocol: (§2) PC3 cells were obtained from the American Type Culture Collection (ATCC, Manassas, Va., Cat.# CRL-1435). Two million cells from the prostate cancer line PC3 were placed into 6 cm culture dishes and allowed to grow in complete RPMI 1640 media (Invitrogen, Carlsbad, Calif., Cat.#22400-105) with 10% fetal bovine serum (Invitrogen, Carlsbad, Calif., Cat.#10438-026). After this time period the cells were serum starved for 5 hours followed by application of the test compound. Test compound was added as a DMSO (dimethyl sulfoxide) solution such that the final DMSO concentration in the cell media was less than or equal to 0.2% by volume After 30 minutes of exposure the growth factor stimulant, human IGF-1 (PeproTech, Inc., Rocky Hill, N.J., Cat.#100-11), was added to a final concentration of 0.1 μg/ml in each well. After 30 minutes of IGF-1 exposure, cells were removed from the media and cell lysates were prepared using RIPA Lysis buffer (Upstate, Lake Placid, N.Y., Cat.#20-188), keeping on ice. The pAKT serine 473 level was measured in duplicate samples of the cell lysates using commercially available assays such as the Pathscan® Sandwich ELISA kit for Ser473 pAKT (Cell Signaling, Danvers, Mass., Cat.#7160). A SpectraMax Plus spectrophotometric plate reader (Molecular Devices, Sunnydale, Calif.) was used to measure the optical density signal for pAKT at 450 nm (OD450 nm). The pAKT OD450 nm readings were normalized by total protein amount in the cell lysates determined by standard methods.
# (§3) Concentrations of test compounds required to inhibit IGF stimulated pAKT levels to 50% of maximum levels in PC3 cells (termed DM50 for decreased maximum 50%) were calculated by inputting the dose responses in the software package GraphPad Prism4 (GraphPad Software, Inc., San Diego, Calif.).
# (§4) Several other cancer cell lines were obtained from ATCC and grown according to the supplier's recommendations and treated with test compounds. DM50 values listed in Table 6 below were obtained by the methods described in Example A: […]
# pAKT in BT-474 cells = test: pAKT status DM50, BT-474; details: Homo sapiens; BT-474, breast cancer
# Protocol: as §2, §3, §4
# pAKT in 786-O cells = test: pAKT status DM50, 786-O; details: Homo sapiens, 786-0, renal cell carcinoma
# Protocol: as §2, §3, §4
# LNCaP cells = test: Oxidative stress of prostate cancer cells (8-iso-Prostaglandin F2α ELISA); details: for OD450 nm reading / 8-iso-Prostaglandin F2α generated: 20 μM; for 8-iso-Prostaglandin F2α generated: control 1.5 μg/mL
# Protocol: LNCaP cells were obtained from the American Type Culture Collection (ATCC, Manassas, Va., Cat.# CRL-1740). 3.5 million cells from the prostate cancer line LNCaP were placed into each of three 10 cm culture dishes and allowed to grow overnight in complete RPMI 1640 media (Invitrogen, Carlsbad, Calif., Cat.#22400-105) with 10% fetal bovine serum (Invitrogen, Carlsbad, Calif., Cat#10438-026). Test compound was added into the dishes to the concentration of 0 and 20 μM and allowed to incubate at 37° C. in a 5% CO2 atmosphere for 2 and 24 hours. Following this the pH of the cell culture media was adjusted down to 3.5 with 2M HCl. After sitting at 4° C. for 15 minutes, the cell culture media from each culture dishes was applied to each of three C18 reverse phase columns (Biotage ISOLUTE, Part #220-0020-B, Lot #5223506B2A, www.biotage.com) which were prewashed with 10 mL/column of ethanol followed by 10 mL/column of deionized water. The loaded columns were then washed with 10 mL/column of water, followed by 10 mL/column of 15% ethanol, and finally 10 mL/column hexane. The desired samples were then eluted from the columns by addition of 10 mL/column ethyl acetate. The ethyl acetate was then evaporated to dryness using a rotating evaporator. Each sample was then dissolved in 500 μL of Assay Buffer provided in BioMol's Isoprostane Oxidative Stress Assay Kit A (Cat. # AK150-0001, Lot #3-08010825). Using the kit reagents according to the manufacturer's instructions the oxidative product 8-iso-Prostaglandin F2α was quantitated by ELISA. Also, using reagents from the kit a standard curve of oxidation product (8-iso-Prostaglandin F2α) versus optical density reading at 450 nm. From this curve optical density readings from the test samples were converted to μg/mL of the oxidation marker 8-iso-Prostaglandin F2α. This kit from BioMol is designed to determine the amount of the 8-iso-Prostaglandin F2α produced as a marker for the amount of oxidative stress experienced by the cells.
smiles,measurement,setting,value
"O=c1cc(N2CCOCC2)oc2c(-c3ccc4c(c3)OCCO4)csc12 [Compound 28, 3-(2,3-dihydrobenzo[b][1,4]dioxin-6-yl)-5-morpholino-7H-thieno[3,2-b]pyran-7-one]",IC50,H1299 (Lung),2430 nM
same,IC50,HCT116 (Colon),2200 nM
same,IC50,MCF7 (Breast),2270 nM
same,IC50,U87MG (Brain),1920 nM
same,IC50,RPM18226 (Myeloma),730 nM
same,IC50,pAKT in H1299 cells,886 nM
same,IC50,pAKT in BT-474 cells,307 nM
same,IC50,pAKT in 786-O cells,1370 nM
same,OD450 nm reading,LNCaP cells; 2 hours exposure,1.01 units
same,8-iso-Prostaglandin F2α generated,LNCaP cells; 2 hours,18.0 µg/mL
same,OD450 nm reading,LNCaP cells; 24 hours exposure,0.96 units
same,8-iso-Prostaglandin F2α generated,LNCaP cells; 24 hours,21.0 µg/mL
same,increase of oxidation marker 8-iso-Prostaglandin F2α relative to untreated controls,LNCaP cells; 2 hours,12 fold
same,increase of oxidation marker 8-iso-Prostaglandin F2α relative to untreated controls,LNCaP cells; 24 hours,14 fold
